Experiment [1] concerns rabbit corneal wound model. The experiment can be described thus: Corneal wound healing promotion action 2 (in vivo), approx. 8 mm corneal epithelial abrasion. The arrangement: species or system Japanese white rabbit. The method, then: (3) Corneal Wound Healing Promotion Action 2 (In Vivo)
Using the same method as (2) above, corneal epithelial abrasion was induced in a Japanese white rabbit to produce a wound of approximately 8 mm in diameter in the cornea. The wound area was measured using the fluorescein-stained area as an index to examine the effects on corneal wound healing.
The eye drops containing the respective concentrations of the test compound were instilled (25 μl at a time) at 0, 6, 12, 18, 24, 30, 36, 42, 48, and 54 hours after induction corneal epithelial abrasion. In measuring the wound area, fluorescein staining was carried out and a photograph of the cornea was measured. The fluorescein-stained area of the photographed cornea was computed using an image analysis processing system.
In Tables 3 and 4, the respective values indicate the mean value±standard deviation (n=6). Statistical analysis was carried out using Dunnett's multiple comparison with respect to physiological saline with the area of the corneal wound portion immediately after (0 hours after) corneal epithelial abrasion being set to 100% (*p<0.05, ** p<0.01; vs. control).

Experiment [2] deals with corneal epithelium. The experiment can be described thus: Action on corneal epithelium migration (in vitro), corneal organ culture system. The note with it: rabbit corneal blocks incubated 20 hours in Medium-199 with test compound; FIG. 1, 51.2-512.3 nM; vs control. The experiment is classed as cell-based, Japanese white rabbit. As to the method: (1) Action on Corneal Epithelium Migration (In Vitro)
Using the cornea of male Japanese white rabbits, the effects on corneal epithelium migration were examined using the migrating length of the corneal epithelium in a corneal organ culture system as an index in accordance with the method of Nishida et al. (J. Cell. Biol., 97, pp. 1653-1657 (1983)).
Corneal blocks (three per group) were cut out from rabbit corneal tissue. These corneal blocks were incubated for 20 hours under the conditions of 37° C. and 5% CO2 in a culture medium (Medium-199) containing the test compound. After incubation, the corneal blocks were fixed in a mixed solution of ethanol and glacial acetic acid (volume ratio of 95:5), embedded in paraffin, and prepared as sections. After deparaffination, the sections were stained with hematoxylin-eosin and the migrating length of the epithelial cell layer was measured under a microscope.

The test system of experiment [3] is rabbit corneal wound model. The experiment can be described thus: Corneal wound healing promotion action 1 (in vivo), approx. 6 mm corneal epithelial abrasion. The arrangement: species or system Japanese white rabbit. The method, then: (2) Corneal Wound Healing Promotion Action 1 (In Vivo)
Using a male Japanese white rabbit, a wound of approximately 6 mm in diameter was produced in the cornea by inducing corneal epithelial abrasion in accordance with the method of Cintron et al. (Ophthalmic Res., 11, pp. 90-96 (1979)). The wound area was measured using the fluorescein-stained area as an index. The effects of the test compound on corneal wound healing were examined.
The eye drops containing the respective concentrations of the test compound were instilled (30 μl at a time) at 0, 3, 6, 9, 12, 18, 24, 27, 30, 33, 36, 42, and 48 hours after inducing corneal epithelial abrasion. In measuring the wound area, fluorescein staining was carried out and a photograph of the cornea was measured. The fluorescein-stained area of the photographed cornea was computed using an image analysis processing system.
In Tables 1 and 2, the respective values indicate the mean value±standard deviation (n=6). Statistical analysis was carried out using Dunnett's multiple comparison with respect to PBS with the area of the corneal wound portion immediately after (0 hours after) corneal epithelial abrasion being set to 100% (*p<0.05, ** p<0.01; vs. control).

Take “Ac-Pro-His-Ser-Arg-Asn-NH2 (Ac-PHSRN-NH2) [PHSRN (SEQ ID NO: 1)]”: the “Healing ratio (%)” value is on record as 0% in experiment [1] (0.04% eye drop, 0 hr (baseline)); 13.57 ± 3.74% in experiment [1] (0.04% eye drop, 12 hr); 29.45 ± 3.29% in experiment [1] (0.04% eye drop, 18 hr); 58.71 ± 6.32% in experiment [1] (0.04% eye drop, 24 hr); 58.71 ± 6.32% in experiment [1] (0.04% eye drop, 30 hr); 70.29 ± 8.38% in experiment [1] (0.04% eye drop, 36 hr). Also, the “Healing ratio (%)” value in experiment [1] (0.04% eye drop, 48 hr) amounted to 88.27 ± 8.74%; in experiment [1] (0.04% eye drop, 54 hr) it was 94.24 ± 6.62%; in experiment [1] (0.04% eye drop, 72 hr), 98.93 ± 2.16%; in experiment [3] (2 μM eye drop, 0 hr (baseline)), 0%; in experiment [3] (2 μM eye drop, 6 hr), 9.66 ± 2.21%; in experiment [3] (2 μM eye drop, 12 hr), 26.71 ± 2.62%. For the same substance, the “Healing ratio (%)” value in experiment [3] (2 μM eye drop, 24 hr) is listed as 61.91 ± 3.08%; in experiment [3] (2 μM eye drop, 36 hr) it was 88.08 ± 4.03%; in experiment [3] (2 μM eye drop, 48 hr), 99.14 ± 1.90%; in experiment [3] (20 μM eye drop, 0 hr (baseline)) it was 0%; in experiment [3] (20 μM eye drop, 6 hr) it was 10.73 ± 3.21%; in experiment [3] (20 μM eye drop, 12 hr), 28.01 ± 1.92%. Also, the “Healing ratio (%)” value in experiment [3] (20 μM eye drop, 24 hr) came to 64.07 ± 3.98%; in experiment [3] (20 μM eye drop, 36 hr), 89.09 ± 6.42%; in experiment [3] (20 μM eye drop, 48 hr) it was 99.15 ± 1.52%; in experiment [3] (200 μM eye drop, 0 hr (baseline)), 0%; in experiment [3] (200 μM eye drop, 6 hr) it was 11.06 ± 3.50%; in experiment [3] (200 μM eye drop, 12 hr) it was 28.69 ± 4.10%. For the same substance, the “Healing ratio (%)” value in experiment [3] (200 μM eye drop, 24 hr) turned out to be 67.70 ± 5.37%; in experiment [3] (200 μM eye drop, 36 hr) it was 94.97 ± 4.63%; in experiment [3] (200 μM eye drop, 48 hr), 100.00 ± 0.00%; in experiment [3] (2000 μM eye drop, 0 hr (baseline)), 0%; in experiment [3] (2000 μM eye drop, 6 hr), 11.15 ± 1.25%; in experiment [3] (2000 μM eye drop, 12 hr) it was 28.99 ± 2.65%. Besides, the “Healing ratio (%)” value in experiment [3] (2000 μM eye drop, 24 hr) is given as 69.49 ± 3.17%; in experiment [3] (2000 μM eye drop, 36 hr), 95.39 ± 3.06%; in experiment [3] (2000 μM eye drop, 48 hr) it was 100.00 ± 0.00%. Moreover, the “promotion of wound healing” value in experiment [1] (instillation of eye drops, 8 mm wound, vs physiological saline) is “significant promotion of wound healing”; in experiment [3] (instillation of eye drops, 6 mm wound, vs PBS), “significant promotion of wound healing”. For the same substance, the “migration of corneal epithelium (migrating length of epithelial cell layer)” value in experiment [2] is “significant promotion”.

As for hyaluronic acid [reference compound], the “Healing ratio (%)” value in experiment [1] (0.3% eye drop, 0 hr (baseline)) is 0%; in experiment [1] (0.3% eye drop, 12 hr) it was 13.98 ± 4.88%; in experiment [1] (0.3% eye drop, 18 hr) it was 28.45 ± 3.37%; in experiment [1] (0.3% eye drop, 24 hr), 60.78 ± 8.07%; in experiment [1] (0.3% eye drop, 30 hr), 60.78 ± 8.07%; in experiment [1] (0.3% eye drop, 36 hr) it was 71.62 ± 11.02%. Moreover, the “Healing ratio (%)” value in experiment [1] (0.3% eye drop, 48 hr) is on record as 90.19 ± 9.51%; in experiment [1] (0.3% eye drop, 54 hr) it was 95.35 ± 6.44%; in experiment [1] (0.3% eye drop, 72 hr), 99.92 ± 0.22%.
